Columns and labels:
Parkin ligase [1] = target: T1, Parkin ligase (Homo sapiens, UniProt O60260); test: Activity-based probe assay using a ubiquitin vinyl sulfone probe (TR-FRET); assay type: biochemical; settings: heat activated Parkin, HA-Ub-VS probe, TR-FRET signal; FIG. 1, FIG. 2
T1 construct: Enzyme: Parkin-His tagged 203 μM (10.5 mg/ml)
T1 sequence (O60260 1-465): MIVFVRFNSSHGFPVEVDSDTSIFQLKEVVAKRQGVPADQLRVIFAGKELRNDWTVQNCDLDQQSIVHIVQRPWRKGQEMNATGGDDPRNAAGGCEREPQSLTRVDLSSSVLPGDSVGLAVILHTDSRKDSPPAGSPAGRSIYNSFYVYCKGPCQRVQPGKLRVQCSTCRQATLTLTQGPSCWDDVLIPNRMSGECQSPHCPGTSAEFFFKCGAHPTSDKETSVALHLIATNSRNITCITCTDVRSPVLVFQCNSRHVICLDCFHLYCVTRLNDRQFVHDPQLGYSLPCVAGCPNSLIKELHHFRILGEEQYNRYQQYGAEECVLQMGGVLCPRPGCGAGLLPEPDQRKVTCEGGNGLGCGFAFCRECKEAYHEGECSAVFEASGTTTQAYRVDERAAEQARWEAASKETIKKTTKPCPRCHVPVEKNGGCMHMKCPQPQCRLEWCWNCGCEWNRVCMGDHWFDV
Description: A Ubiquitin vinyl sulfone probe can be used that irreversibly binds to the active site cysteine of Parkin ligase. Covalent attachment of the probe to the Parkin can be monitored by TR-FRET. Candidate activator compounds can be identified by increasing the activity of Parkin ligase due to an increase in TR-FRET signal. Screening for activating compounds can be distinguished from the controls as follows: • 100% activation signal=Heat activated Parkin+100 nM control activator in DMSO. 0% activation signal=Heat activated Parkin+DMSO only. Parkin activators can be identified by an increase of the 0% activation signal TR-FRET signal. […]
(§1) Data Analysis: The Data can be read in CSV files. […]

Parkin ligase [2] = target: T2, Parkin ligase (Homo sapiens, UniProt O60260); test: Parkin pUB auto-ubiquitinylation assay (TR-FRET); assay type: biochemical; settings: for Parkin activity in an auto-ubiquitination assay: pUb activated Parkin, E1-E2 cascade, TR-FRET signal, FIG. 3, FIG. 5
T2 construct: Enzyme 3: Parkin-His tagged 203 μM (10.5 mg/ml) Supplied by An2H
Source text: A Parkin pUB Auto-ubiquitinylation Assay is used to evaluate a candidate compound's potency to activate Parkin's ability to Auto-ubiquitinylate itself.
The principle of this assay is that the E3 Ligase Parkin catalyzes the transfer of Ubiquitin to target proteins, but also has the ability to auto-ubiquitinylate itself. The phospho-Ubiquition (pUb) added to the assay alters the Parkin to a state where small molecule activators can enable the Parkin to auto-ubiquitinylate though the E1-E2 cascade reaction. The use of a Eu cryptate Ubiquition and anti 6His-d2 that binds to the His tagged Parkin will give a signal when the Eu cryptate Ubiquition is auto-ubiquitinylate onto the Parkin which can be monitored by TR-FRET.
Similar to the Activity-based probe assay in Examples 2 and 3, screening for activating compounds can be distinguished from the controls as follows: • 100% activation signal=pUb activated Parkin+40 nM control activator in DMSO. • 0% activation signal=pUb activated Parkin+DMSO only. • Parkin activators can be identified by an increase of the 0% activation signal TR-FRET signal. […]
Assay Procedure: • 1) Load assay plate wells with 4.9 μl 400.0 nM Parkin, 800 nM pUb in reaction buffer by use of Bravo. • 2) Deliver 0.1 μl 100× activator candidates in DMSO by use of HP D-300 compound dispenser. […] Add each compound and control in duplicate wells. • 3) Spin 1000 rpm, 2 minutes, at room temp. • 4) Incubate plate for 15 minutes at room temp. • 5) Add 5 μl 10 nM E1, 100 nM E2, 17.6 nM Ubiquitin Eu and 2 mM ATP in Reaction Buffer by use of Bravo. • 6) Spin 1000 rpm, 2 minutes, at room temp. • 7) Incubate plate for 120 minutes at room temp. • 8) Add 10 μl 13.4 nM anti his d2 in detection buffer by use of Bravo. • 9) Spin 1000 rpm, 2 minutes, at room temp. • 10) Incubate plate for 60 minutes at room temp. • 11) Read plates on Perkin Elmer Envision instrument.
as §1

Parkin ligase [3] = target: T1, Parkin ligase; test: Tandem mass spectrometry of Parkin ligase incubated with compound, after proteolytic digestion; assay type: binding; settings: tandem mass spectrometry of proteolytic fragments
Description: Parkin ligase was incubated with AH007 compound, and the mixture was then subject to tandem mass spectometry analysis after proteolytic digestion to produce fragments of Parkin ligase. […] Compound An2H07 is also fragmented when analyzed by mass spectrometry. Therefore, characteristic pieces of the compound AH007 that are attached to specific residues of Parkin can also be identified. These fragments were characterized for alterations in fragment size indicative of bound small molecule of the predicted molecular weight of AH007. The mass spectrometry data identified three specific fragments of AH007 at two specific residues of Parkin ligase. The data identified a fragment of 253.08-256.09 of AH007 compound attached to cysteine residue 377 of Parkin ligase (C377) and a fragment of 343.14-346.14 of AH007 compound attached to C377. The data also identified a fragment of 253.08-256.09 of AH007 compound attached to cysteine residue 59 of Parkin ligase (C59). […] It is also believed that at least C377 is included in ZnF domains of human Parkin Ligase, and thus accords with the theory that cysteine residues in the flexible Parkin ligase ZnF domains are vulnerable for attachment and/or interruption by small molecule candidates. Peptide fragments of Parkin comprising C59 and/or C377 will be useful to design further binding assays and selection of additional modulating agents.

Compound	Parkin Ligase reaction with the Activity-based Ubiquitin vinyl sulfone probe (Parkin ligase [1])	parkin activation in an auto-ubiquitination assay, compound with pUB (Parkin ligase [2]; compound together with pUB, FIGS. 4A and 4B)	Parkin activity in an auto-ubiquitination assay (Parkin ligase [2])	binding residues of Parkin ligase for the compound (Parkin ligase [3])
O=C(Nc1nc(NC(=O)c2ccccc2)n(-c2ccccc2)n1)c1ccccc1 [AH001, N,N′-(1-phenyl-1H-1,2,4-triazole-3,5-diyl)dibenzamide]	increases the Parkin Ligase reaction	synergistically increases parkin activation	increases Parkin activity	–
Cc1nc2c(-c3ccccc3)c(C)nn2c(S)c1Cc1ccccc1 [AH007, 6-benzyl-2,5-dimethyl-3-phenylpyrazolo[1,5-a]pyrimidine-7-thiol]	increases the Parkin Ligase reaction	–	increases Parkin activity	binds and/or attaches to two specific sites in Parkin ligase: C59 and C377

— patent US10155936B2, “Parkin ligase activation methods and compositions” (An2H Discovery Limited, priority 2014, dated 2018)
